From ChEMBL document CHEMBL2380233, “Addition of artificial salt bridge by Ile646Lys mutation in gp41 coiled-coil domain regulates 6-helical bundle formation” (Bioorg Med Chem Lett, 2013)

Experiments:
[1] = test system: Human immunodeficiency virus 1; assay: Antiviral activity against HIV1 HXB2 infected in HEK293T cells by luciferase reporter gene assay; format: functional, organism-based; conditions: Human immunodeficiency virus 1, HXB2, HEK-293T
[2] = test system: Human immunodeficiency virus 1; assay: Antiviral activity against HIV1 CNE3 infected in HEK293T cells by luciferase reporter gene assay; format: functional, organism-based; conditions: Human immunodeficiency virus 1, CNE3, HEK-293T
[3] = test system: Human immunodeficiency virus 1; assay: Antiviral activity against HIV1 JRFL infected in HEK293T cells by luciferase reporter gene assay; format: functional, organism-based; conditions: Human immunodeficiency virus 1, JRFL, HEK-293T
[4] = test system: Human immunodeficiency virus 1; assay: Antiviral activity against HIV1 SF162 infected in HEK293T cells by luciferase reporter gene assay; format: functional, cell-based; conditions: Human immunodeficiency virus 1, SF162 ISOLATE, HEK-293T

IC50 [1] [nM]	IC50 [2] [nM]	IC50 [3] [nM]	IC50 [4] [nM]	Compound
94	550	920	520	CC[C@H](C)[C@H](NC(=O)[C@H](CCC(=O)O)NC(=O)[C@H](CCCNC(=N)N)NC(=O)[C@H](CC(=O)O)NC(=O)[C@H](Cc1c[nH]c2ccccc12)NC(=O)[C@H](CCC(=O)O)NC(=O)[C@H](CCSC)NC(=O)[C@H](Cc1c[nH]c2ccccc12)NC(C)=O)C(=O)N[C@@H](CC(N)=O)C(=O)N[C@@H](CC(N)=O)C(=O)N[C@@H](Cc1ccc(O)cc1)C(=O)N[C@H](C(=O)N[C@@H](CO)C(=O)N[C@@H](CC(C)C)C(=O)N[C@H](C(=O)N[C@@H](Cc1cnc[nH]1)C(=O)N[C@@H](CO)C(=O)N[C@@H](CC(C)C)C(=O)N[C@@H](CCCCN)C(=O)N[C@@H](CCC(=O)O)C(=O)N[C@@H](CCC(=O)O)C(=O)N[C@@H](CO)C(=O)N[C@@H](CCC(N)=O)C(=O)N[C@@H](CC(N)=O)C(=O)N[C@@H](CCC(N)=O)C(=O)N[C@@H](CCC(N)=O)C(=O)N[C@@H](CCC(=O)O)C(=O)N[C@@H](CCCCN)C(=O)N[C@@H](CC(N)=O)C(=O)N[C@@H](CCC(=O)O)C(=O)N[C@@H](CCC(N)=O)C(=O)N[C@@H](CCC(=O)O)C(=O)N[C@@H](CC(C)C)C(=O)N[C@@H](CC(C)C)C(N)=O)[C@@H](C)CC)[C@@H](C)O
1310	470	1190	1430	CC[C@H](C)[C@H](NC(=O)[C@H](CCC(=O)O)NC(=O)[C@H](CCCNC(=N)N)NC(=O)[C@H](CC(=O)O)NC(=O)[C@H](Cc1c[nH]c2ccccc12)NC(=O)[C@H](CCC(=O)O)NC(=O)[C@H](CCSC)NC(=O)[C@H](Cc1c[nH]c2ccccc12)NC(C)=O)C(=O)N[C@@H](CC(N)=O)C(=O)N[C@@H](CC(N)=O)C(=O)N[C@@H](Cc1ccc(O)cc1)C(=O)N[C@H](C(=O)N[C@@H](CO)C(=O)N[C@@H](CC(C)C)C(=O)N[C@H](C(=O)N[C@@H](Cc1cnc[nH]1)C(=O)N[C@@H](CO)C(=O)N[C@@H](CC(C)C)C(=O)N[C@@H](CCC(=O)O)C(=O)N[C@@H](CCC(=O)O)C(=O)N[C@@H](CCC(=O)O)C(=O)N[C@@H](CO)C(=O)N[C@@H](CCC(N)=O)C(=O)N[C@@H](CC(N)=O)C(=O)N[C@@H](CCC(N)=O)C(=O)N[C@@H](CCC(N)=O)C(=O)N[C@@H](CCC(=O)O)C(=O)N[C@@H](CCCCN)C(=O)N[C@@H](CC(N)=O)C(=O)N[C@@H](CCC(=O)O)C(=O)N[C@@H](CCC(N)=O)C(=O)N[C@@H](CCC(=O)O)C(=O)N[C@@H](CC(C)C)C(=O)N[C@@H](CC(C)C)C(N)=O)[C@@H](C)CC)[C@@H](C)O
